The text below walks through data of PMC3968691 (The FEBS journal, 2013).

Usually Kd stands for the free concentration of one partner at which half of the binding sites on the other are occupied at equilibrium, for simple one-to-one binding. Low values mean a tighter complex, high ones a looser complex.

The target of this assay is Sts-1PGM (suppressor of T-cell receptor signaling-1 PGM domain) (Mus musculus, UniProt Q8BGG7, E490Q/H380C). The assay can be described thus: biochemical.
Chain of Sts-1PGM (suppressor of T-cell receptor signaling-1 PGM domain) (Q8BGG7 369-638 H380C/E490Q): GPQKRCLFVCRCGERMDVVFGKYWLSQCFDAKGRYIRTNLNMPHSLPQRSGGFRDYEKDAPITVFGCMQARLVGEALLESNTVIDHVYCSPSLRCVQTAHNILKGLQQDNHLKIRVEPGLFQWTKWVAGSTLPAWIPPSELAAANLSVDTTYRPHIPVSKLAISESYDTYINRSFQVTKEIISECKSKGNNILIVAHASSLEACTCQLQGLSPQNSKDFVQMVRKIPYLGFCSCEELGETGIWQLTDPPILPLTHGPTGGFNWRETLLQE

As to `COc1ccc2c(c1)Oc1cc(OP(=O)(O)O)ccc1C21OC(=O)c2ccccc21` (stereo not shown) [OMFP], the Kd was 5.71 µM.
